Test results from the Deep4Chem optical property database.
Blank lines part the entries; values can stand above or below the compound they belong to.

Test: solvent given as SMILES

Structure (SMILES): COc1cc(OC)cc(C2=C3C(C)=C(I)C(/C=C/c4ccsc4)=[N+]3[B-](F)(F)n3c(/C=C/c4ccsc4)c(I)c(C)c32)c1
- absorption maximum (in C1CCOC1): 670 nm
- absorption maximum (in CS(C)=O): 675 nm
- absorption maximum (in ClCCl): 670 nm

Structure (SMILES): C[n+]1ccn(CCCCc2ccc3c(c2)c2ccccc2n3-c2cc(C#N)c(C#N)cc2-n2c3ccccc3c3cc(CCCCn4cc[n+](C)c4)ccc32)c1
- absorption maximum (in CC#N): 368.93 nm

Structure (SMILES): COc1ccc(/C=C/c2cc(/C=C/c3ccc(OC)cc3)nc(/C=C/c3ccc(N(C)C)cc3)n2)cc1
- absorption maximum (in ClCCl): 370 nm

Structure (SMILES): Oc1ccccc1/C=N/N=C/c1ccccc1O
- absorption maximum (in CC#N): 355 nm
- absorption maximum (in CC(C)CCCC(C)CCCC(C)CCCCC(C)CCCC(C)CCCC(C)C): 363 nm
- absorption maximum (in CCCCCC): 361 nm
- absorption maximum (in CCCCCCCCC): 362 nm
- absorption maximum (in CCCCCCCCCCCCCCCC): 363 nm
- absorption maximum (in CCCCl): 359 nm
- absorption maximum (in CCN(CC)CC): 359 nm
- absorption maximum (in CCO): 356 nm
- absorption maximum (in CCOCC): 358 nm
- absorption maximum (in CO): 355 nm
- absorption maximum (in O=C(O)C(F)(F)F): 398 nm
- absorption maximum (in OC(C(F)(F)F)C(F)(F)F): 345 nm
- absorption maximum (in OCC(F)(F)F): 350 nm
- absorption maximum (in OCCO): 357 nm

Structure (SMILES): CN(C)c1cc2oc3cc(N(C)C)c(F)cc3c(=O)c2cc1F
- absorption maximum (in CCO): 378 nm

Structure (SMILES): CC1=C(C(C)(C)C)C(C)=[N+]2C1=C(C)c1c(C)c(C(C)(C)C)c(C)n1[B-]2(F)F
- absorption maximum (in C1CCCCC1): 529 nm
- absorption maximum (in C1CCOC1): 525.1 nm
- absorption maximum (in C1COCCO1): 525.1 nm
- absorption maximum (in CC#N): 520.8 nm
- absorption maximum (in CC(C)=O): 522.5 nm
- absorption maximum (in CC(C)CC(C)(C)C): 527.5 nm
- absorption maximum (in CCC(C)C): 527.1 nm
- absorption maximum (in CCCC(C)=O): 523.7 nm
- absorption maximum (in CCCCCC): 527.5 nm
- absorption maximum (in CCCCCCCCO): 527.3 nm
- absorption maximum (in CCCCCCO): 526.7 nm
- absorption maximum (in CCCCO): 526.1 nm
- absorption maximum (in CCCCOC(C)=O): 524.3 nm
- absorption maximum (in CCCO): 525.3 nm
- absorption maximum (in CCO): 524.3 nm
- absorption maximum (in CCOC(C)=O): 523.2 nm
- absorption maximum (in CCOCC): 525.1 nm
- absorption maximum (in CN(C)C=O): 524 nm
- absorption maximum (in CNC=O): 522.3 nm
- absorption maximum (in CO): 522.9 nm
- absorption maximum (in COC(C)=O): 522.5 nm
- absorption maximum (in OCC(F)(F)F): 521.6 nm

Structure (SMILES): Nc1ncc2nc[nH]c2n1
- absorption maximum (in O): 290 nm

Structure (SMILES): N#Cc1ccc2[nH]ccc2c1
- absorption maximum (in C1COCCO1): 274.85 nm
- absorption maximum (in CC#N): 275 nm
- absorption maximum (in O): 275 nm

Structure (SMILES): O=c1ccc2cc3c(cc2o1)OCC3
- absorption maximum (in CC(C)O): 333 nm
- absorption maximum (in CCO): 333 nm
- absorption maximum (in CCOCC): 330 nm
- absorption maximum (in CO): 333 nm
- absorption maximum (in O): 336 nm

Structure (SMILES): CN(C)c1ccc(C2=Nc3scc(-c4ccccc4)[n+]3[B-](F)(F)O2)cc1
- absorption maximum (in C1CCOC1): 406 nm
- absorption maximum (in CC#N): 406 nm
- absorption maximum (in Cc1ccccc1): 409 nm
- absorption maximum (in ClCCl): 411 nm

Structure (SMILES): CC(C)(C)Nc1cc2oc3cc(NC(C)(C)C)c(F)cc3c(=O)c2cc1F
- absorption maximum (in CCO): 368 nm

Structure (SMILES): CC(C)(C)c1ccc(-c2nc(-c3ccc(-n4c5ccccc5c5c6oc7ccccc7c6ccc54)cc3)nc(-c3ccc(C(C)(C)C)cc3)n2)cc1
- absorption maximum (in C1CCOC1): 354.46 nm

Structure (SMILES): CCC1=C(C)C2=Cc3c4ccccc4c4n3[B-](c3ccncc3)(Oc3ccccc3-4)[N+]2=C1C (stereo unspecified)
- absorption maximum (in CC#N): 621 nm
- absorption maximum (in CCCCCC): 625 nm
- absorption maximum (in Cc1ccccc1): 629 nm
- absorption maximum (in ClCCl): 627 nm

Structure (SMILES): O=C1c2ccccc2C(=O)N1c1ccc(Cn2cncn2)cc1
- absorption maximum (in C1CCOC1): 293 nm
- absorption maximum (in C1COCCO1): 284 nm
- absorption maximum (in CC#N): 315 nm
- absorption maximum (in CC(C)=O): 304 nm
- absorption maximum (in CC(C)O): 306 nm
- absorption maximum (in CCCCCC): 278 nm
- absorption maximum (in CCCCO): 302 nm
- absorption maximum (in CCO): 308 nm
- absorption maximum (in CCOC(C)=O): 290 nm
- absorption maximum (in CCOCC): 289 nm
- absorption maximum (in CN(C)C=O): 314 nm
- absorption maximum (in CO): 312 nm
- absorption maximum (in CS(C)=O): 320 nm
- absorption maximum (in Cc1ccccc1): 283 nm
- absorption maximum (in ClCCl): 294 nm

Structure (SMILES): CC1=CC(/C=C/c2ccc(OCCCN=[N+]=[N-])cc2)=[N+]2C1=C(c1ccc(N(C)C)cc1)c1c(C)cc(C)n1[B-]2(F)F
- absorption maximum (in CO): 568 nm

Structure (SMILES): CCCCCCCCOc1ccc(C#Cc2ccc(C#Cc3ccc(OCCCCCCCC)c(OCCCCCCCC)c3)c3nc4c5ccccc5c5ccccc5c4nc23)cc1OCCCCCCCC
- absorption maximum (in C1CCOC1): 461 nm
- absorption maximum (in Cc1ccccc1): 461 nm
- absorption maximum (in ClCCl): 461 nm

Structure (SMILES): COc1ccc2c(=O)c3c([nH]c2c1)-c1ccccc1NC3(C)C
- absorption maximum (in C1CCOC1): 404 nm
- absorption maximum (in CC#N): 415 nm
- absorption maximum (in CCCCO): 424 nm
- absorption maximum (in CCCO): 421 nm
- absorption maximum (in CCO): 424 nm
- absorption maximum (in CCOC(C)=O): 395 nm
- absorption maximum (in CN(C)C=O): 421 nm
- absorption maximum (in CO): 424 nm
- absorption maximum (in CS(C)=O): 424 nm
- absorption maximum (in Cc1ccccc1): 397 nm
- absorption maximum (in ClC(Cl)(Cl)Cl): 404 nm
- absorption maximum (in ClCCl): 403 nm
- absorption maximum (in O): 383 nm
- absorption maximum (in c1ccccc1): 402 nm

Structure (SMILES): c1ccc(/C(=C(\c2ccccc2)c2ccccc2-c2ccc(-c3ccccc3)cc2)c2ccccc2-c2ccc(-c3ccccc3)cc2)cc1
- absorption maximum (in C1CCOC1): 280 nm

Structure (SMILES): CC(C)[Si](C#Cc1c2nsnc2c(C#C[Si](C(C)C)(C(C)C)C(C)C)c2nc3c(ccc4cc5ccccc5cc43)nc12)(C(C)C)C(C)C
- absorption maximum (in CCCCCC): 579 nm

Structure (SMILES): CCNCC
- absorption maximum (in CCCCCC): 193 nm

Structure (SMILES): CC1=[N+]2C(=Cc3c4c(cn3[B-]2(F)F)-c2nc-4c(-c3ccccc3)c3ccc([nH]3)c(-c3ccccc3)c3nc(c(-c4ccccc4)c4ccc([nH]4)c2-c2ccccc2)C=C3)C(C)C1 (stereo unspecified)
- absorption maximum (in ClCCl): 640 nm

Structure (SMILES): CCCCCCC(CCCCCC)N1C(=O)c2cccc3c(-c4cc(OC)c(OC)c(OC)c4)ccc(c23)C1=O
- absorption maximum (in CCCCCC): 354.8 nm
- absorption maximum (in CCCCCCCCCCCCCC): 357 nm
- absorption maximum (in CCCCCCCCCCCO): 362.6 nm
- absorption maximum (in CCCCO): 361.4 nm
- absorption maximum (in CN(C)C=O): 365.6 nm
- absorption maximum (in Cc1ccccc1): 360.8 nm
- absorption maximum (in ClC(Cl)Cl): 362.2 nm

Structure (SMILES): CC(=O)OC[C@H]1O[C@@H](OCC#Cc2ccc(C3=C4C(C)=CC(/C=C/c5ccc(N(C)C)cc5)=[N+]4[B-](F)(F)n4c(/C=C/c5ccc(N(C)C)cc5)cc(C)c43)cc2)[C@H](OC(C)=O)C(OC(C)=O)[C@@H]1OC(C)=O (stereo partly specified)
- absorption maximum (in CC#N): 701 nm

Structure (SMILES): CCC(C)(C)c1ccc2c(c1)C(CCOC)(CCOC)c1cc(-c3ccc4c(c3)C(CCOC)(CCOC)c3cc(C(C)(C)CC)ccc3-4)ccc1-2
- absorption maximum (in C1CCCCC1): 331 nm

Structure (SMILES): C[n+]1ccc(-c2cc[n+](C)cc2)cc1
- absorption maximum (in CC#N): 260 nm

Structure (SMILES): CC(C)[Si](C#Cc1c2cc3ccccc3cc2c(C#Cc2ccc(Br)cc2)c2cc3ccccc3cc12)(C(C)C)C(C)C
- absorption maximum (in ClCCl): 654 nm

Now from value to compound:

- absorption maximum (in CCCCCC): 458 nm
- absorption maximum (in CO): 456 nm
- absorption maximum (in CS(C)=O): 463 nm
- absorption maximum (in ClC(Cl)Cl): 460 nm
- absorption maximum (in ClCCl): 463 nm
Structure (SMILES): O=S(=O)(/N=c1\oc2cccc3c4c(-c5ccccc5)oc5cccc(c(c1-c1ccccc1)c23)c54)C(F)(F)F

- absorption maximum (in CC#N): 392 nm
- absorption maximum (in ClCCl): 394 nm
Structure (SMILES): COC(=O)c1cc(=O)n(C)c2cc(-c3ccccc3)sc12

- absorption maximum (in CCCCCCC): 381 nm
Structure (SMILES): c1ccc2c3c(ccc2c1)-c1cc2ccccc2c2cccc-3c12

- absorption maximum (in C1CCOC1): 393 nm
- absorption maximum (in ClC(Cl)Cl): 394 nm
Structure (SMILES): F[Si](c1ccccc1)(c1ccccc1)c1c2ccccc2cc2ccccc12

- absorption maximum (in CC#N): 343 nm
- absorption maximum (in ClCCl): 358 nm
Structure (SMILES): O=c1c2cc(Br)ccc2nc2n1[B-](F)(F)[n+]1ccccc1-2

- absorption maximum (in C1COCCO1): 447 nm
- absorption maximum (in CC#N): 441 nm
- absorption maximum (in CCCCOCCCC): 453 nm
- absorption maximum (in CCOC(C)=O): 451 nm
Structure (SMILES): CC(=O)Nc1ccc2c3cccc4cccc(c5cccc1c52)c43

- absorption maximum (in ClCCl): 405 nm
Structure (SMILES): c1ccc(B2Nc3cc4c(cc3-c3sccc32)NB(c2ccccc2)c2ccsc2-4)cc1

- absorption maximum (in ClC(Cl)Cl): 408 nm
Structure (SMILES): O=C1CC(c2ccc([N+](=O)[O-])cc2)c2c(c3ccccc3c3nc4ccccc4nc23)O1 (stereo unspecified)

- absorption maximum (in CC#N): 579 nm
- absorption maximum (in CS(C)=O): 589 nm
- absorption maximum (in ClC(Cl)Cl): 588 nm
Structure (SMILES): C#CCn1c2ccccc2c2cc(/C=C/c3cc(C)c4n3[B-](F)(F)[N+]3=C(C)C=C(C)C3=C4c3ccc(I)cc3)ccc21

- absorption maximum (in CC#N): 403 nm
Structure (SMILES): Oc1ccccc1/C=N/c1cc2nc3ccccc3nc2cc1/N=C/c1ccccc1O

- absorption maximum (in CC#N): 419 nm
- absorption maximum (in CCCCCC): 408 nm
- absorption maximum (in CS(C)=O): 441 nm
Structure (SMILES): c1ccc2nc3c(nc2c1)c1c2n3CCCN2CCCC1

- absorption maximum (in ClCCl): 418 nm
Structure (SMILES): Cn1cc(-c2nc3ccccc3nc2C#Cc2ccc(C#N)cc2)c2ccccc21

- absorption maximum (in ClCCl): 323 nm
Structure (SMILES): CCOC(=O)c1c(-c2cc3ccccc3oc2=O)nn(-c2ccccc2)c1C(=O)OCC

- absorption maximum (in C1CCOC1): 360 nm
- absorption maximum (in CC#N): 356 nm
- absorption maximum (in CCOC(C)=O): 362 nm
- absorption maximum (in CS(C)=O): 355 nm
- absorption maximum (in ClC(Cl)Cl): 364 nm
Structure (SMILES): N#Cc1cc2ccc(O)cc2oc1=N

- absorption maximum (in C1CCOC1): 407 nm
Structure (SMILES): COc1cc2c(cc1-c1ccncc1)Cc1c3c(c4c(c1-2)-c1cc(OC)c(-c2ccncc2)cc1C4)C(=O)N(CCC(C)C)C3=O

- absorption maximum (in O): 277 nm
Structure (SMILES): [NH3+]C(Cc1c[nH]c2ccccc12)C(=O)[O-] (stereo unspecified)

- absorption maximum (in O): 400 nm
Structure (SMILES): Clc1ccc2cc3cccc[n+]3cc2c1

- absorption maximum (in CC#N): 305 nm
- absorption maximum (in CCCCCC): 375 nm
- absorption maximum (in CO): 356 nm
- absorption maximum (in ClC(Cl)Cl): 394 nm
Structure (SMILES): c1ccc2cc3cc(-c4cc(-c5nccs5)nc(-c5nccs5)c4)ccc3cc2c1

- absorption maximum (in ClCCl): 617 nm
Structure (SMILES): COc1ccccc1C1=[N+]2C(=C(c3ccccc3)c3c4ccccc4c(-c4ccccc4OC)n3[B-]2(F)F)c2ccccc21

- absorption maximum (in C1CCOC1): 426 nm
Structure (SMILES): CCCCCOc1ccc2c(c1)c1ccc3cccc4c5cccc6oc(=O)c2c(c65)c1c34

- absorption maximum (in C1CCOC1): 687 nm
Structure (SMILES): O=C1/C(=C2\Nc3cc4ccc5cccc6ccc(c3C2=O)c4c56)Nc2cc3ccc4cccc5ccc(c21)c3c45
